Target: T1, human TLR7 (Homo sapiens, UniProt Q9NYK1)
T1 construct: host or cells: HEK-Blue hTLR7 (HEK293)
T1 sequence (Q9NYK1 27-1049): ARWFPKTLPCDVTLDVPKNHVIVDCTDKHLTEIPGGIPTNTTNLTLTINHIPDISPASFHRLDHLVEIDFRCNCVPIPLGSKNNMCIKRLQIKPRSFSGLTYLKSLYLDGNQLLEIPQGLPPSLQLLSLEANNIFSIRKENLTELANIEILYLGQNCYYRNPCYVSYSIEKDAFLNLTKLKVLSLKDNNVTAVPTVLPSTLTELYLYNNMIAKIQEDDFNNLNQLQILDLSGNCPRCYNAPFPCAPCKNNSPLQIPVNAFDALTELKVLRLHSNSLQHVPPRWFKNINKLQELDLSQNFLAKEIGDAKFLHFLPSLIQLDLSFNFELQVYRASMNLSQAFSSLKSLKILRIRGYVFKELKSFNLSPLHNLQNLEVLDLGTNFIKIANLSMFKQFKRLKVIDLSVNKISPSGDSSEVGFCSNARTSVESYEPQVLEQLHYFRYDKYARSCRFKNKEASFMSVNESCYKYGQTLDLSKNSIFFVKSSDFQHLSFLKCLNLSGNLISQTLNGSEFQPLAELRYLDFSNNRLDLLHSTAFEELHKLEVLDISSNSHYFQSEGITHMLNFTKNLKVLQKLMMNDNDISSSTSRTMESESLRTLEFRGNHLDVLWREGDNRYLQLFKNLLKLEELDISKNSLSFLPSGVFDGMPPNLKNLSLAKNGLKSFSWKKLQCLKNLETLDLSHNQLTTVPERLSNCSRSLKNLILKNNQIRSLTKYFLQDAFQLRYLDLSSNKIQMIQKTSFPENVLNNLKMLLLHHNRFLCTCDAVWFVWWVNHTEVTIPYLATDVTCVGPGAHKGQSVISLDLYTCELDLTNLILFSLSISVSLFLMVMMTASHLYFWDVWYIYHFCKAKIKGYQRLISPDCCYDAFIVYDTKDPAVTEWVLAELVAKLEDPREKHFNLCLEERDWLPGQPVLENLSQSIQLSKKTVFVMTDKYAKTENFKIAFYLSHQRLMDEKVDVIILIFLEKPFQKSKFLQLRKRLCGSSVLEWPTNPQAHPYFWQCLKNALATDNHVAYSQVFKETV
Experiment: Inhibitory effect on human TLR7 activation pathway (HEK-Blue hTLR7 SEAP reporter)
Type: cell-based
Details: HEK-Blue hTLR7 cells, 1 μM resiquimod, 20 h, SEAP OD620
Protocol: • 1. HEK-Blue™ hTLR7 cell (Invivogen) • 2. Resiquimod (R848, Invivogen) • 3. Alkaline phosphatase detection medium (Quanti-Blue Detection, Invivogen) • 4. Blasticidin (Invivogen) • 5. Zeocin (Invivogen) • 6. Normocin (Invivogen) • 7. DMEM/HIGH Glucose (GE Healthcare) • 8. Fetal bovine serum (FBS, Gibco) • 9. Phosphate-buffered saline (Shanghai BasalMedia Technologies Co., Ltd.) • 10. Sterile purified water (made in-house by Shanghai Hengrui) • 11. 15 mL centrifuge tube (Corning) • 12. %-well formulating plate (Corning) • 13. 96-well flat-bottom cell culture plate (Corning) • 14. Constant-temperature cell incubator (Thermo scientific) • 15. Constant-temperature incubator (Shanghai Yiheng Scientific Instruments Co., Ltd.) • 16. PHERAstar FS microplate reader (BMG Labtech)
HEK-Blue™ hTLR7 cells were purchased from Invivogen. These cells are HEK293 cells transfected with the human Toll-like receptor 7 (TLR7) gene and the secreted alkaline phosphatase reporter gene (SEAP). The alkaline phosphatase reporter gene (SEAP) is under the regulation of the IFN—P minimal promoter comprising 5 NF-kB and AP-1 binding sites. Upon activation of TLR7 with an agonist, SEAP secretion is induced via downstream NF-kB and AP-1. After addition of an antagonist compound, the pathway described above is inhibited, and SEAP secretion is reduced. The activity of the compounds for the TLR7 pathway was evaluated by measuring OD620 through the SEAP substrate.
20 mM test compounds dissolved in 100% DMSO were serially diluted with 100% DMSO to 2000, 400, 80, 16, 3.2, 0.64, 0.128, 0.0256 μM, with blank wells containing 100% DMSO. The compounds and 100% DMSO were then 20-fold diluted in DMEM/HIGH glucose media containing 10% inactivated FBS (complete media, the same applies below). Resiquimod was diluted to 10 μM with sterile water. The 10 μM resiquimod dilution in sterile water was added to a 96-well cell culture plate at 20 μL/well. The above compounds diluted in complete media and 100% DMSO were then added at 20 μL/well to wells containing resiquimod, 20 μL of sterile water and 20 μL of 100% DMSO diluted in the complete medium were added to negative control wells.
HEK-Blue™ hTLR7 cells were cultured in a DMEM/HIGH glucose medium containing 10% inactivated FBS, 100 μg/mL Normocin, 10 μg/mL blasticidin, and 100 μg/mL Zeocin. Cells that were in a good state of growth and had grown to 70%-80% were collected. The growth medium was discarded, 5-10 mL of PBS pre-heated at 37° C. was added to wash the cells once, and 2-5 mL of pre-heated PBS was added. The cells were cultured at 37° C. for 1-2 min, dispersed by pipetting, transferred to a 15 mL centrifuge tube, and counted, and the cell density was adjusted to 4.8-10′/mL with the complete medium. After density adjustment, 160 μL of the resulting cell suspension was added to the above 96-well cell culture plate to a final number of cells per well of 76,500/well. The final concentration of resiquimod was 1 μM, and the final concentrations of the test compounds were 10,000, 2000, 400, 80, 16, 3.2, 0.64, and 0.128 nM. The cells were cultured in a 37° C., 5% CO2 incubator for 20 h. Then 20 μL of the supernatant was added to 180 μL of the prepared alkaline phosphatase detection medium and incubated in the dark in a constant-temperature incubator at 37° C. for 120 min. Then the OD620 absorbance readings were taken on a microplate reader. The inhibition rate was calculated using the following formula: […]
Inhibition curves were plotted using Graphpad Prism software according to the concentrations of the compounds and the corresponding inhibition rates, and the concentrations of the compounds at which the inhibition rate reached 50%, i.e., IC50 values, were calculated and are shown in Table 1.

Row | SMILES | IC50
1 | Cc1cc(-c2[nH]c3cc4c(nc3c2C(C)C)CN(Cc2ccc(N3CCNCC3)cn2)CC4)cc(C)n1 [Example 5, 2-(2,6-Dimethylpyridin-4-yl)-3-isopropyl-6-((5-(piperazin-1-yl)pyridin-2-yl)methyl)-5,6,7,8-tetrahydro-1H-pyrrolo[3,2-b][1,7]naphthyridine] | 5.7 nM
2 | Cc1cc(-c2[nH]c3cc4c(nc3c2C(C)C)CN(C(C)C)CC4)cc(C)n1 [Example 2, 2-(2,6-Dimethylpyridin-4-yl)-3,6-diisopropyl-5,6,7,8-tetrahydro-1H-pyrrolo[3,2-b][1,7]naphthyridine] | 29.9 nM
3 | Cc1cc(-c2[nH]c3cc4c(nc3c2C(C)C)CN(CCc2ccc(N3CCNCC3)nc2)CC4)cc(C)n1 [Example 4, 2-(2,6-Dimethylpyridin-4-yl)-3-isopropyl-6-(2-(6-(piperazin-4-yl)pyridin-3-yl)ethyl)-5,6,7,8-tetrahydro-1H-pyrrolo[3,2-b][1,7]naphthyridine] | 6.8 nM
4 | Cc1cc(-c2[nH]c3cc4c(nc3c2C(C)C)CNCC4)cc(C)n1 [Example 1, 2-(2,6-Dimethylpyridin-4-yl)-3-isopropyl-5,6,7,8-tetrahydro-1H-pyrrolo[3,2-b][1,7]naphthyridine] | 7.7 nM
5 | Cc1cc(-c2[nH]c3cc4c(nc3c2C(C)C)CN(CC23CCC(N)(CC2)CC3)CC4)cc(C)n1 [Example 7, 4-((2-(2,6-Dimethylpyridin-4-yl)-3-isopropyl-1,5,7,8-tetrahydro-6H-pyrrolo[3,2-b][1,7]naphthyridin-6-yl)methyl)bicyclo[2.2.2]octyl-1-amine] | 7.1 nM

Results, then the compound that gave them:

Row | IC50 | SMILES
6 | 21.5 nM | Cc1c(-c2[nH]c3cc4c(nc3c2C(C)C)CN(CC(N)=O)CC4)cn2ncnc2c1C [Example 10, 2-(2-(7,8-Dimethyl-[1,2,4]triazolo[1,5-a]pyridin-6-yl)-3-isopropyl-1,5,7,8-tetrahydro-6H-pyrrolo[3,2-b][1,7]naphthyridin-6-yl)acetamide]
7 | 18.2 nM | Cc1cc(-c2[nH]c3cc4c(nc3c2C(C)C)CN(CC(N)=O)CC4)cc(C)n1 [Example 8, 2-(2-(2,6-Dimethylpyridin-4-yl)-3-isopropyl-1,5,7,8-tetrahydro-6H-pyrrolo[3,2-b][1,7]naphthyridin-6-yl)acetamide]
8 | 4.9 nM | Cc1c(-c2[nH]c3cc4c(nc3c2C(C)C)CNCC4)cn2ncnc2c1C [Example 9, 2-(7,8-Dimethyl-[1,2,4]triazolo[1,5-a]pyridin-6-yl)-3-isopropyl-5,6,7,8-tetrahydro-1H-pyrrolo[3,2-b][1,7]naphthyridine]

From patent publication US20240360133A1, “FUSED TRICYCLIC COMPOUND, PREPARATION METHOD THEREFOR AND APPLICATION THEREOF IN MEDICINE” (Jiangsu Hengrui Pharmaceuticals Co., Ltd., priority 2020, published 2024)
